According to patent US10112954B2, “Bicyclic heteroaryl derivatives having inhibitory activity for protein kinase” (HANMI PHARM. CO., LTD., priority 2010, dated 2018):

Molecular target: T1, FGFR1 (Homo sapiens, UniProt P11362)
T1 construct: purchased Upstate Company
Assay: Inhibition of FGFR1 kinase (fluorescence polarization kinase assay)
Assay type: biochemical
Settings: Table 2, class symbols; read-out: FGFR1 IC50
Method: (§1) Inhibition activities of kinases of the inventive compounds (test compounds) prepared in the Examples were assessed and represented as IC50 values.
(§2) Kinases used in Test Examples 1 to 3 were purchased from Upstate Company.
(§3) 100 mM HEPES (pH 7.4), 25 mM MgCl2, 10 mM MnCl2 and 250 μM Na3VO4 were mixed to prepare a kinase buffer. Each of kinases to be measured was diluted to a concentration of 25˜300 ng per one reaction according to its activity with the kinase buffer. Also, each of the test compounds was serially diluted to a concentration starting from 100 nM up to 0.1 nM with the kinase buffer. 10 μl of the serially diluted solution of each of the test compounds and 10 μl of the diluted kinase were added to each well of a 96-well microplate, and the plate was incubated at room temperature for 10 mins. 10 μl of a substrate and 10 μl of ATP were successively added thereto to initiate a kinase reaction, and the resulting mixture was incubated at room temperature for 1 hour. The ATP was used in a form of a solution diluted to a concentration determined according to a kinase's Km value with distilled water. 10˜100 ng/mL poly(Glu, Tyr) 4:1 (Sigma) was used as the substrate. 10 μl of 6 mM EDTA was added to each well and stirred for 5 mins to terminate the kinase reaction. For a measurement of phosphorylation degree, 50 μl of a solution containing anti-phosphotyrosine antibody and fluorescein-labeled phosphopeptide was added to the reaction mixture, followed by incubating for 30 mins. The FP (fluorescence polarization) value of each well was determined with a Victor™ D fluorescence meter (Perkin Elmer Lifesciences).
(§4) IC50, the concentration at which 50% inhibition occurs, was evaluated based on the difference between the final concentration of the test cells and the initial concentration of the cells incubated in a well not-treated with the test compound which was regarded as 100%. IC50 values of the test compounds on the FGFR kinase were shown in Table 2, and those of the test compound obtained in Example 177 on various kinases, in Table 3.

T1 sequence (P11362 22-822, species assumed): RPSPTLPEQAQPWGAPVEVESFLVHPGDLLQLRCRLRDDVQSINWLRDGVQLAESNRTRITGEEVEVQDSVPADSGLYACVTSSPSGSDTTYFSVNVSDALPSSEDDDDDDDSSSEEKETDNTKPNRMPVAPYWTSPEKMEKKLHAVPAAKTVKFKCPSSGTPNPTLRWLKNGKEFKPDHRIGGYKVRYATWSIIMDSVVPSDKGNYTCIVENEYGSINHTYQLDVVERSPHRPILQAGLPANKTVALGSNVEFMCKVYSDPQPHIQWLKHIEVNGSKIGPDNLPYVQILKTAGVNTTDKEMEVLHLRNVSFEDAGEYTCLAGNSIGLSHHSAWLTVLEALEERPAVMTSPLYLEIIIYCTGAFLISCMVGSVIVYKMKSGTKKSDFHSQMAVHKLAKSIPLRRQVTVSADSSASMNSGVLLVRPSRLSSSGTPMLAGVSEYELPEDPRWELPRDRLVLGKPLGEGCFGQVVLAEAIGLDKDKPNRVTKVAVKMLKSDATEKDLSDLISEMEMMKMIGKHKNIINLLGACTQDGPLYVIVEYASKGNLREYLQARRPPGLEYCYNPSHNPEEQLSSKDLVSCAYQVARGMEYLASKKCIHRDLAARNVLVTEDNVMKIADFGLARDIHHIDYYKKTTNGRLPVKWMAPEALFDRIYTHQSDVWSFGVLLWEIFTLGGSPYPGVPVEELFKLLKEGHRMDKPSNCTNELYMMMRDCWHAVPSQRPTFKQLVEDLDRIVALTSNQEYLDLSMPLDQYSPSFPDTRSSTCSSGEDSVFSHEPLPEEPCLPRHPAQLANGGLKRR

Row | SMILES | IC50 [nM]
1 | CCN1CCN(Cc2ccc(Nc3ncnc4c(C(=O)Nc5c(Cl)c(OC)cc(OC)c5Cl)csc34)nc2)CC1 [Example 179, N-(2,6-dichloro-3,5-dimethoxyphenyl)-4-(5-((4-ethylpiperazin-1-yl)methyl)pyridin-2-ylamino)thieno[3,2-d]pyrimidine-7-carboxamide] | 1 to 100
2 | CCN(CC)CCOc1ccc(Nc2ncnc3c(C(=O)Nc4c(Cl)c(OC)cc(OC)c4Cl)csc23)cc1 [Example 196, N-(2,6-dichloro-3,5-dimethoxyphenyl)-4-(4-(2-(diethylamino)ethoxy)phenylamino) thieno[3,2-d]pyrimidine-7-carboxamide] | 100 to 500
3 | CCOC(=O)NC(=S)Nc1ncnc2c(C(=O)Nc3c(Cl)c(OC)cc(OC)c3Cl)csc12 [Example 216, N-(2,6-dichloro-3,5-dimethoxyphenyl)-4-(3-(ethoxycarbonyl)thioureido)thieno[3,2-d]pyrimidine-7-carboxamide] | 100 to 500
4 | CCOC(=O)CNc1ncnc2c(C(=O)Nc3c(Cl)c(OC)cc(OC)c3Cl)csc12 [Example 302, ethyl 2-(7-(2,6-dichloro-3,5-dimethoxyphenyl-carbamoyl)thieno[3,2-d]pyrimidin-4-ylamino)acetate] | 1000 to 5000
5 | COc1cc(OC)c(Cl)c(NC(=O)c2csc3c(Nc4ccc(CN5CCOCC5)cn4)ncnc23)c1Cl [Example 247, N-(2,6-dichloro-3,5-dimethoxyphenyl)-4-(5-(morpholinomethyl)pyridin-2-ylamino)thieno[3,2-d]pyrimidine-7-carboxamide] | 1 to 100

Molecular target: T2, FGFR3 (Homo sapiens, UniProt P22607)
T2 construct: purchased Upstate Company
T2 sequence (P22607 23-806, species assumed): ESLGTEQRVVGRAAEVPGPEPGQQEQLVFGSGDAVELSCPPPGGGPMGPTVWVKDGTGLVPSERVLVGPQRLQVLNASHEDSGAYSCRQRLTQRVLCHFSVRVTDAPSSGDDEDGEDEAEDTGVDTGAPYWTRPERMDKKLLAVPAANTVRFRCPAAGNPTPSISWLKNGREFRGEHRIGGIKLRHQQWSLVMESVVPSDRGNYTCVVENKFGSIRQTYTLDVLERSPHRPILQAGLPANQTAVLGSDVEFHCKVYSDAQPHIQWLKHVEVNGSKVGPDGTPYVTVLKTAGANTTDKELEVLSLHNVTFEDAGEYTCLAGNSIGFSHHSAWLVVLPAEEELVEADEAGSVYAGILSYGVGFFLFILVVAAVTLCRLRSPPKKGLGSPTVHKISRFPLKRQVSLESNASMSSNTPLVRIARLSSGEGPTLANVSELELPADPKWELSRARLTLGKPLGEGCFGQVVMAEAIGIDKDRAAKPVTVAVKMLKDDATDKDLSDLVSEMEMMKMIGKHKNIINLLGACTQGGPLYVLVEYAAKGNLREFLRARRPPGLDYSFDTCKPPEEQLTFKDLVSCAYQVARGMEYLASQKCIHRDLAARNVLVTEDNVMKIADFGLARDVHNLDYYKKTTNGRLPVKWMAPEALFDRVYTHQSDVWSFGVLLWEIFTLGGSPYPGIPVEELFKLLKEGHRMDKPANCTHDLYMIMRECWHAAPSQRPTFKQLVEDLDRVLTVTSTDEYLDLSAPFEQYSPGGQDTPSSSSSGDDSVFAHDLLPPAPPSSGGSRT
Assay: Inhibition of FGFR3 kinase (fluorescence polarization kinase assay)
Assay type: biochemical
Settings: Table 2, class symbols; read-out: FGFR3 IC50
Method: as §1, §2, §3, §4

Row | SMILES | IC50 [nM]
6 | COc1cc(OC)c(Cl)c(NC(=O)c2csc3c(Nc4ccc(C(=O)NN5CCN(C)CC5)cn4)ncnc23)c1Cl [Example 268, N-(2,6-dichloro-3,5-dimethoxyphenyl)-4-(5-(4-methylpiperazin-1-ylcarbamoyl)pyridin-2-ylamino)thieno[3,2-d]pyrimidine-7-carboxamide] | 1 to 100
7 | CCN1CCN(Cc2ccc(Nc3ncnc4c(C(=O)Nc5c(Cl)c(OC)cc(OC)c5Cl)csc34)nc2)CC1 [Example 179, N-(2,6-dichloro-3,5-dimethoxyphenyl)-4-(5-((4-ethylpiperazin-1-yl)methyl)pyridin-2-ylamino)thieno[3,2-d]pyrimidine-7-carboxamide] | 1 to 100
8 | COc1cc(NC(=O)c2csc3c(N)ncnc23)c2ccoc2c1 [Example 113] | 1000 to 5000
9 | CCN(CC)CCOc1ccc(Nc2ncnc3c(C(=O)Nc4c(Cl)c(OC)cc(OC)c4Cl)csc23)cc1 [Example 196, N-(2,6-dichloro-3,5-dimethoxyphenyl)-4-(4-(2-(diethylamino)ethoxy)phenylamino) thieno[3,2-d]pyrimidine-7-carboxamide] | 500 to 1000
10 | COc1cc(OC)c(Cl)c(NC(=O)c2csc3c(NS(C)(=O)=O)ncnc23)c1Cl [Example 206, N-(2,6-dichloro-3,5-dimethoxyphenyl)-4-(methylsulfonamido) thieno[3,2-d]pyrimidine-7-carboxamide] | 1000 to 5000
11 | CCN1CCN(c2ccc(C(=O)Nc3ncnc4c(C(=O)Nc5c(Cl)c(OC)cc(OC)c5Cl)csc34)cc2)CC1 [Example 204, N-(2,6-dichloro-3,5-dimethoxyphenyl)-4-(4-(4-ethylpiperazin-1-yl)benzamido)thieno[3,2-d]pyrimidine-7-carboxamide] | 100 to 500
12 | CCOC(=O)NC(=S)Nc1ncnc2c(C(=O)Nc3c(Cl)c(OC)cc(OC)c3Cl)csc12 [Example 216, N-(2,6-dichloro-3,5-dimethoxyphenyl)-4-(3-(ethoxycarbonyl)thioureido)thieno[3,2-d]pyrimidine-7-carboxamide] | 500 to 1000
13 | COc1cc(OC)c(Cl)c(NC(=O)c2csc3c(Nc4ccc(CC(=O)N5CCOCC5)cn4)ncnc23)c1Cl [Example 257, N-(2,6-dichloro-3,5-dimethoxyphenyl)-4-(5-(2-morpholino-2-oxoethyl)pyridin-2-ylamino)thieno[3,2-d]pyrimidine-7-carboxamide] | 1 to 100
14 | CCOC(=O)CNc1ncnc2c(C(=O)Nc3c(Cl)c(OC)cc(OC)c3Cl)csc12 [Example 302, ethyl 2-(7-(2,6-dichloro-3,5-dimethoxyphenyl-carbamoyl)thieno[3,2-d]pyrimidin-4-ylamino)acetate] | 1000 to 5000
15 | COc1cc(OC)c(Cl)c(NC(=O)c2csc3c(Nc4ccc(C)cn4)ncnc23)c1Cl [Example 178, N-(2,6-dichloro-3,5-dimethoxyphenyl)-4-(5-methylpyridin-2-ylamino)thieno[3,2-d]pyrimidine-7-carboxamide] | 100 to 500
16 | COc1cc(OC)c(Cl)c(NC(=O)c2csc3c(Nc4ccc(C(N)=O)cn4)ncnc23)c1Cl [Example 274, 4-(5-carbamoylpyridin-2-ylamino)-N-(2,6-dichloro-3,5-dimethoxyphenyl) thieno[3,2-d]pyrimidine-7-carboxamide] | 1 to 100
17 | COc1cc(OC)c(Cl)c(/C=C/c2csc3c(N)ncnc23)c1Cl [Example 76, 7-(2,6-dichloro-3,5-dimethoxystyryl) thieno[3,2-d]pyrimidine-4-amine] | 1000 to 5000
18 | COc1cc(OC)c(Cl)c(NC(=O)c2csc3c(Nc4cc(CN5CCSC5)ccn4)ncnc23)c1Cl [Example 291, N-(2,6-dichloro-3,5-dimethoxyphenyl)-4-(4-(thiazolidin-3-ylmethyl)pyridin-2-ylamino)thieno[3,2-d]pyrimidine-7-carboxamide] | 1 to 100
19 | COc1cc(OC)c(Cl)c(NC(=O)c2csc3c(Nc4ccc(CN5CCOCC5)cn4)ncnc23)c1Cl [Example 247, N-(2,6-dichloro-3,5-dimethoxyphenyl)-4-(5-(morpholinomethyl)pyridin-2-ylamino)thieno[3,2-d]pyrimidine-7-carboxamide] | 1 to 100
20 | COc1cc(OC)c(Cl)c(NC(=O)c2csc3c(Nc4ccc(CN5CCNC(=O)C5)cn4)ncnc23)c1Cl [Example 263, N-(2,6-dichloro-3,5-dimethoxyphenyl)-4-(5-((3-oxopiperazin-1-yl)methyl)pyridin-2-ylamino)thieno[3,2-d]pyrimidine-7-carboxamide] | 1 to 100
21 | CCN1CCN(c2cc(Nc3ncnc4c(C(=O)Nc5c(Cl)c(OC)cc(OC)c5Cl)csc34)ncn2)CC1 [Example 182, N-(2,6-dichloro-3,5-dimethoxyphenyl)-4-(6-(4-ethylpiperazin-1-yl)pyrimidin-4-ylamino)thieno[3,2-d]pyrimidine-7-carboxamide] | 1 to 100
22 | CCN(CC)Cc1cccc(Nc2ncnc3c(C(=O)Nc4c(Cl)c(OC)cc(OC)c4Cl)csc23)n1 [Example 273, N-(2,6-dichloro-3,5-dimethoxyphenyl)-4-(6-((diethylamino)methyl)pyridin-2-ylamino)thieno[3,2-d]pyrimidine-7-carboxamide] | 1000 to 5000
23 | CCN(CC)CCCCNc1ncnc2c(C(=O)Nc3c(Cl)c(OC)c(Br)c(OC)c3Cl)csc12 [Example 157, N-(4-bromo-2,6-dichloro-3,5-dimethoxyphenyl)-4-(4-(diethylamino)butyl-amino)thieno[3,2-d]pyrimidine-7-carboxamide] | 1000 to 5000
24 | COc1cc(OC)c(Cl)c(NC(=O)c2csc3c(Nc4cc(NCCN5CCOCC5)ncn4)ncnc23)c1Cl [Example 208, N-(2,6-dichloro-3,5-dimethoxyphenyl)-4-(6-(2-morpholinoethyl-amino)pyrimidin-4-ylamino)thieno[3,2-d]pyrimidine-7-carboxamide] | 1 to 100
25 | COc1cc(OC)c(Cl)c(NC(=O)c2csc3c(Nc4ccc(C(=O)N5CCOCC5)cn4)ncnc23)c1Cl [Example 255, N-(2,6-dichloro-3,5-dimethoxyphenyl)-4-(5-(morpholine-4-carbonyl)pyridin-2-ylamino)thieno[3,2-d]pyrimidine-7-carboxamide] | 1 to 100
26 | COc1cc(NC(=O)c2csc3c(Nc4ccccc4)ncnc23)c2ccoc2c1 [Example 114] | 1000 to 5000
27 | COc1cc(OC)c(Cl)c(NC(=O)c2csc3c(Nc4cc(OCCN(C)C)ncn4)ncnc23)c1Cl [Example 209, N-(2,6-dichloro-3,5-dimethoxyphenyl)-4-(6-(2-(dimethylamino)eth-oxy)pyrimidin-4-ylamino)thieno[3,2-d]pyrimidine-7-carboxamide] | 100 to 500
28 | COc1cc(OC)c(Cl)c(NC(=O)c2csc3c(NC4CC4)ncnc23)c1Cl [Example 168, 4-(cyclopropylamino)-N-(2,6-dichloro-3,5-dimethoxyphenyl) thieno[3,2-d]pyrimidine-7-carboxamide] | 1 to 100
29 | COc1cc(OC)c(Cl)c(NC(=O)c2csc3c(Nc4cc(C)ccn4)ncnc23)c1Cl [Example 270, N-(2,6-dichloro-3,5-dimethoxyphenyl)-4-(4-methylpyridin-2-ylamino)thieno[3,2-d]pyrimidine-7-carboxamide] | 1 to 100
30 | COc1c(Cl)c(NC(=O)c2csc3c(Nc4ccc(F)c(Cl)c4)ncnc23)c(Cl)c(OC)c1Br [Example 287, N-(4-bromo-2,6-dichloro-3,5-dimethoxyphenyl)-4-(3-chloro-4-fluorophenylamino) thieno[3,2-d]pyrimidine-7-carboxamide] | 1000 to 5000
31 | COc1cc(OC)c(Cl)c(NC(=O)c2csc3c(Nc4ccc(CN5CCCC(C(F)(F)F)C5)cn4)ncnc23)c1Cl (stereo not shown) [Example 259, N-(2,6-dichloro-3,5-dimethoxyphenyl)-4-(5-((3-(trifluoromethyl)piperidin-1-yl)methyl)pyridin-2-ylamino)thieno[3,2-d]pyrimidine-7-carboxamide] | 1000 to 5000
32 | CCN1CCN(c2ccc(C(=O)Nc3ncnc4c(C(=O)Nc5c(Cl)c(OC)c(Br)c(OC)c5Cl)csc34)cc2)CC1 [Example 203, N-(4-bromo-2,6-dichloro-3,5-dimethoxyphenyl)-4-(4-(4-ethylpiperazin-1-yl)benzamido)thieno[3,2-d]pyrimidine-7-carboxamide] | 1000 to 5000
33 | CCN(CC)C(=O)Cc1ccnc(Nc2ncnc3c(C(=O)Nc4c(Cl)c(OC)cc(OC)c4Cl)csc23)c1 [Example 292, N-(2,6-dichloro-3,5-dimethoxyphenyl)-4-(4-(2-(diethylamino)-2-oxoethyl)pyridin-2-ylamino)thieno[3,2-d]pyrimidine-7-carboxamide] | 1 to 100
34 | CCN1CCN(CCCNc2ncnc3c(C(=O)Nc4c(Cl)c(OC)cc(OC)c4Cl)csc23)CC1 [Example 171, N-(2,6-dichloro-3,5-dimethoxyphenyl)-4-(3-(4-ethylpiperazin-1-yl)propylamino) thieno[3,2-d]pyrimidine-7-carboxamide] | 1000 to 5000
